Data taken from patent US7638509B2, “Diene compounds and formulations” (priority 2003, dated 2009).
Numbering of substitutions follows the chain as printed.

Columns and labels:
[1] = molecular target: T1, AR (Homo sapiens, UniProt P10275, T878A); assay: Adiol-induced AR transcription, MMTV-Luc in LNCaP cells; format: cell-based; settings: 2.5 nM Adiol, compound at 1 μM
T1 construct: LNCaP without transfection; endogenous in cells; host or cells: LNCaP
T1 sequence (P10275 1-920 T878A): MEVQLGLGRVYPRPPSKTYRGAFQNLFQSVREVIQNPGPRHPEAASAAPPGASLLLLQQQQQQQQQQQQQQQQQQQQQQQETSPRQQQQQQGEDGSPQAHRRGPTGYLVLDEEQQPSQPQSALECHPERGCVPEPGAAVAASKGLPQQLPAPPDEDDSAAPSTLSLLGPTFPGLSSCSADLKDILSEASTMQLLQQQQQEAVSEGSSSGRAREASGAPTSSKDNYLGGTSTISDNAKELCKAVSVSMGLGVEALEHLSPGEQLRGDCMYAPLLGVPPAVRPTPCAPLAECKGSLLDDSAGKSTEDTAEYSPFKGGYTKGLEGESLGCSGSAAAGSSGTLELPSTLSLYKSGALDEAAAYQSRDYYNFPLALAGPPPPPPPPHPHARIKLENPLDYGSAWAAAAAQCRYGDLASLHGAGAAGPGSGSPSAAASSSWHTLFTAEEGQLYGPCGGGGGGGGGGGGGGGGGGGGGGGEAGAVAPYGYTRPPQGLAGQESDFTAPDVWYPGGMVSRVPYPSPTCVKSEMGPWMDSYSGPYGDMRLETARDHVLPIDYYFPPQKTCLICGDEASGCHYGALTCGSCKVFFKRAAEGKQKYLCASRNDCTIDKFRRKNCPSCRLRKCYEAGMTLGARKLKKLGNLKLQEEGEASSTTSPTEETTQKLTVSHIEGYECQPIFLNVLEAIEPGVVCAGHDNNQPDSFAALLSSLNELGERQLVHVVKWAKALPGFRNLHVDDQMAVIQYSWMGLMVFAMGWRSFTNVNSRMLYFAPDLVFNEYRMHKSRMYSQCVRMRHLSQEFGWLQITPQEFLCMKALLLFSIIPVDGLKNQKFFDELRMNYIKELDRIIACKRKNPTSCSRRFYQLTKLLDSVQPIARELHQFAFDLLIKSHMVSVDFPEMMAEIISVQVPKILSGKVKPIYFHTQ
Experimental: (§1) Cell Culture, Transfection, and Reporter Gene Assay. The human prostate cancer cell lines, LNCaP, PC-3, and DU145, and non-prostate cancer cell line COS-1 were maintained in RPMI or Dulbecco's modified Eagle's medium (DMEM) (Life Technologies) supplemented with 10% fetal bovine serum (FBS). Transfections and luciferase (Luc) assays were performed as previously described (Miyamoto, H., Yeh, S., Wilding, G. & Chang, C. (1998) Proc. Natl. Acad. Sci. USA 95, 7379-7384; Miyamoto, H., Rahman, M., Takatera, H., Kang, H.-Y., Yeh, S., Chang, H.-C., Nishimura, K., Fujimoto, N. & Chang, C. (2002) J. Biol. Chem. 277, 4609-4617). Briefly, cells seeded to reach a density of 50-60% confluence in 12 well tissue culture plates were transfected with 1.5 μg of DNA according to “SuperFect transfection” instructions (Qiagen). After 2-3 h incubation, cells were treated with medium supplemented with charcoal-stripped FBS containing either ethanol or ligands for 24 h. The cells were then harvested and whole cell extracts were used for Luc assay. The Luc activity was determined using a Dual-Luciferase Reporter Assay System (Promega) and luminometer.
Effect of ADEK on AR Transcription. […] (set as 100%). Values were obtained from the mean±SD of at least three determinations.

[2] = molecular target: T2, wild-type AR (Homo sapiens, UniProt P10275); assay: AR transcriptional activity (androgenic activity), MMTV-Luc reporter in PC-3 cells transfected with wild-type AR; format: cell-based; design: expressed in transfected cells; host or cells: PC-3; settings: PC-3, wild-type AR plasmid + MMTV-Luc, compound at 1000 nM, 24 h
T2 sequence (P10275 1-920): T1 sequence (P10275 1-920 T878A) with A878T
Experimental: as §1
Anti-DHT Effect of DHEA Derivatives with Low Androgenic Activity on AR Transcription. Test compounds as antiandrogenic compounds, were characterized by analysis of their ability to induce AR transcriptional activity in the AR-negative PC-3 cell line. The Luc activity was determined in the cell extracts with transient transfection of wild-type AR plasmid and androgen response element-reporter plasmid (mouse mammary tumor virus (MMTV)-Luc). After transfection, the cells were treated with various compounds at 0.1-1,000 nM.
To accomplish these studies, PC-3 cells were transfected with the wild-type AR expression plasmid pSG5-AR and MMTV-Luc. […] The Luc activity was measured relative to that of ethanol treatment (set as 1-fold). Values from the mean±SD of at least three determinations were used. PC-3 cells were transfected with the pSG5-AR and MMTV-Luc. […] Values from the mean±SD of at least three determinations were obtained.

**Q.** For `CC(=O)O[C@H]1C=C[C@@]2(C)C(=CC[C@@H]3[C@@H]2CC[C@@]2(C)[C@H]3CCC23OCCO3)C1` [ADEK, 3β-acetoxy-17,17-ethylenedioxyandrosta-1,5-diene], which “repression of Adiol-induced AR transcription” value [1] is on record?
**A.** Its value is about 58%.

**Q.** What about the “induction on AR transcription as compared to mock treatment” value [2] of the same molecule?
**A.** The value was “marginal induction”.
